{"source": "patent US20230159899A1", "about": "“DEVICES AND METHODS FOR SIMULATING A FUNCTION OF LIVER TISSUE” (EMULATE, INC., priority 2015, published 2023)", "key": {"Human Liver-on-Chip [1]": {"system": "Human Liver-on-Chip", "assay_type": "in vitro ADME", "description": "FIG. 83 provides a graph measuring a low clearance compound Antipyrine in a Clearance assay in microfluidic “Human Liver-on-Chip” under continuous flow.\nFIG. 84 provides a graph measuring low clearance compound Antipyrine in a Clearance assay in microfluidic “Human Liver-on-Chip” under non-dynamic conditions.\nEach drug molecule has a limited time to interact with hepatocytes, i.e. an interaction time. Under conditions of flow, the interaction time is reduced. However the interaction time can be increased by either using non-dynamic conditions (absence of flow) or by reticulating the media containing the drug. The present invention contemplates both embodiments for increasing interaction time, and in particular for low clearance compounds. […] See, FIGS. 83-84.\nUnder dynamic conditions: Antipyrine medium removed from the Liver-on-Chip at 5 sample points over 10 hours of incubation, then again after 25 hours of incubation, was tested for an amount (%) of remaining compound. After 25 hours, around 90% of the compound remained in the media. See, FIG. 83.\nUnder non-dynamic conditions: 50 μl (total) of Antipyrine medium in the Liver-on-Chip was tested for an amount (%) of remaining compound, after incubation for 24 hours and 48 hours. At 48 hours, around 100% of the compound appeared to be present in the media. […]"}, "Human Liver-on-Chip [2]": {"system": "Human Liver-on-Chip", "assay_type": "cell-based", "experimental": "(§1) FIGS. 76A-76C provides graphs measuring Bosentan Toxicity as Albumin Secretion in three different species of microfluidic chips: FIG. 76A “RAT Liver-on-Chip”; FIG. 76B “DOG Liver-on-Chip”; increasing concentrations from 1.2-100 μM and FIG. 76C “Human Liver-on-Chip” increasing concentrations from 0.4-100 μM. Samples were removed from the microfluidic chip with a sample from a plate sandwich culture shown for comparison.\n(§2) Thus, for step 4, one exemplary toxicity mechanism is a loss of albumin secretion.\n(§3) One contemplated difference between unsuccessful modeling experiments i.e. measuring cell death by LDH release, as in FIG. 75 vs. successful modeling measuring reduced cell function by a reduction in albumin secretion, as in FIG. 76, was potential cross-talk (e.g. exchange of secretions or physical cell-cell interactions) between Hepatocyte and liver sinusoidal endothelial cells (LSEC) after treatment with Bosentan. Therefore, a Human Liver-on-Chip was designed and seeded with areas of LSEC only and hepatocytes only, allowing a co-culture area in between, see, micrograph in FIG. 77. […] Therefore, co-culturing with LSEC increases hepatocytes sensitivity to Bosentan in these microfluidic HUMAN Liver-on-Chips."}, "[3]": {"conditions": "reported in literature; cited from earlier work"}, "[4]": {"system": "Na(+)-dependent taurocholate uptake", "conditions": "human suspended hepatocytes; read-out: IC(50), inhibition of Na(+)-dependent taurocholate uptake; cited from earlier work"}, "DOG Liver-on-Chip [5]": {"system": "DOG Liver-on-Chip", "assay_type": "cell-based", "conditions": "7 days", "experimental": "(§4) FIGS. 75A-75C provides graphs measuring Bosentan Toxicity as a percentage of LDH Leakage in three different species of microfluidic chips: FIG. 75A “RAT Liver-on-Chip” (7 days of treatment); FIG. 75B microfluidic “DOG Liver-on-Chip” (7 days of treatment); and FIG. 75C microfluidic “Human Liver-on-Chip” (3 days of treatment) increasing concentrations from 1.2 (1.3 for human)-100 μM. Samples were removed from the hepatocyte channel and the LSEC channel of the microfluidic chip with a sample from a plate sandwich culture shown for comparison.\n(§5) An exemplary tool compound was chosen for a pilot study, as an exemplary step 1: Bosentan (Tracleer), see, FIG. 74 for an exemplary chemical structure. […] Step 2: RAT and DOG “Liver-on-Chip” models were chosen for comparison to a HUMAN “Liver-on-Chip”. Step 3: A concentration range of 1.2 to 100 μM Bosentan was selected. Step 4, a first type of mechanism, e.g. exemplary LDH leakage was chosen for analysis of toxicity. FIG. 75 provides graphs measuring Bosentan Toxicity as a percentage of LDH Leakage in three different species of microfluidic chips: A) “RAT Liver-on-Chip” (7 days of treatment); B) microfluidic “DOG Liver-on-Chip” (7 days of treatment); and C) microfluidic “Human Liver-on-Chip” (3 days of treatment) increasing concentrations from 1.2 (1.3 for human)-100 μM. […]"}, "[6]": {"conditions": "clinical trials, cited from earlier work"}, "Human Liver-on-Chip [7]": {"system": "Human Liver-on-Chip", "assay_type": "cell-based", "conditions": "3 days", "experimental": "as §4, §5"}, "[8]": {"molecular_target": "T1, rat Na(+)-dependent taurocholate co-transporting polypeptide (Ntcp/Slc10a1) (Rattus norvegicus, UniProt P26435)", "T1 sequence (P26435 1-362)": "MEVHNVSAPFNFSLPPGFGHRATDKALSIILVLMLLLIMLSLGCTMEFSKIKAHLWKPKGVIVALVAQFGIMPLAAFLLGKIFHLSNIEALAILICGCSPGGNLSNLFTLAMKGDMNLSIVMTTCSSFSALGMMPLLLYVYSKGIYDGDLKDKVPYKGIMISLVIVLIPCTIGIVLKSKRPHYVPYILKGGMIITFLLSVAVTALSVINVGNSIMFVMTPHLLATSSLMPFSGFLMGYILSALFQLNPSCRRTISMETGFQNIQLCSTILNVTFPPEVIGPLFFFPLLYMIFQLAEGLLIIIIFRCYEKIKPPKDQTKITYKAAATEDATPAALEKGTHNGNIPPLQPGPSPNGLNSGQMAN", "conditions": "rat Ntcp/Slc10a1 expressed in HEK293 cells; read-out: IC(50), inhibition of taurocholate uptake; cited from earlier work"}, "DOG Liver-on-Chip [9]": {"system": "DOG Liver-on-Chip", "assay": "Bosentan toxicity as albumin secretion, DOG Liver-on-Chip", "assay_type": "cell-based", "experimental": "as §1, §2"}, "human NTCP (SLC10A1)": {"molecular_target": "T2, human NTCP (SLC10A1) (Homo sapiens, UniProt Q14973)", "T2 sequence (Q14973 1-349)": "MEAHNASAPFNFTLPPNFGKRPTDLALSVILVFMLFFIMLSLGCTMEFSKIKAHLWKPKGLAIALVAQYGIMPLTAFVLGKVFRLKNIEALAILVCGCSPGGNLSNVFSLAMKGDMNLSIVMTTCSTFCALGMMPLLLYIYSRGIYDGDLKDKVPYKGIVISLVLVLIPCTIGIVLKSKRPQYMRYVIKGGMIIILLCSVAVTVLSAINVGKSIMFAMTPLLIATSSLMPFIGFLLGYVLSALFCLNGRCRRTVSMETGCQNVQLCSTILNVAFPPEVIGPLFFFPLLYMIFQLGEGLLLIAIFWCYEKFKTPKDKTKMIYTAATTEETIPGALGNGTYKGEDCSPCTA", "conditions": "human NTCP (SLC10A1) expressed in HEK293 cells; read-out: IC(50), inhibition of taurocholate uptake; cited from earlier work"}, "[10]": {"system": "Na(+)-dependent taurocholate uptake", "conditions": "rat suspended hepatocytes; read-out: IC(50), inhibition of Na(+)-dependent taurocholate uptake; cited from earlier work"}, "RAT Liver-on-Chip": {"system": "RAT Liver-on-Chip", "assay": "Bosentan toxicity as LDH leakage, RAT Liver-on-Chip", "assay_type": "cell-based", "conditions": "1.2-100 μM", "experimental": "as §4, §5"}, "[11]": {"system": "hepatocytes with liver sinusoidal endothelial cells (LSEC)", "assay": "Modified Human Liver-on-Chip with LSEC only, hepatocytes only and co-culture areas, visual observation", "assay_type": "cell-based", "conditions": "Bosentan at 11 μM, 3 days of treatment", "description": "as §3"}, "Rat Stellate Cells": {"system": "Rat Stellate Cells", "assay": "Stellate cell activation in quadruple-culture Rat Liver-on-Chip (α-SMA staining)", "assay_type": "cell-based", "conditions": "1 ng/ml for 48 hours, from Day 7", "experimental": "FIGS. 82A-82B provides a micrograph of isolated Rat Stellate Cells that were seeded within a microfluidic Quadruple-culture “Rat Liver-on-Chip”. […] DAPI (blue) stained nuclei.\nA quadruple-culture microfluidic Rat Liver-on-Chip at Day 7 has viable Stellate cells."}}, "note": "Like-named read-outs stand apart in the source and are kept apart here.", "data": [{"compound": "Cc1cc(=O)n(-c2ccccc2)n1C", "note": "[Antipyrine]", "values": [{"measurement": "amount of remaining compound in the media", "setting": "Human Liver-on-Chip [1]; dynamic conditions (continuous flow), after 25 hours", "value": "around 90%"}, {"measurement": "amount of remaining compound in the media", "setting": "Human Liver-on-Chip [1]; non-dynamic conditions, 50 μl medium, at 48 hours", "value": "around 100%"}]}, {"compound": "COc1ccccc1Oc1c(NS(=O)(=O)c2ccc(C(C)(C)C)cc2)nc(-c2ncccn2)nc1OCCO", "note": "[Bosentan]", "values": [{"measurement": "dose response of albumin secretion", "setting": "Human Liver-on-Chip [2]", "value": "clear dose response"}, {"measurement": "hepatotoxicity in treated rats", "setting": "[3]", "value": "do not develop hepatotoxicity"}, {"measurement": "IC50", "setting": "[4]", "value": 30, "unit": "µM"}, {"measurement": "LDH leakage: dose up to which there was a lack of effects", "setting": "DOG Liver-on-Chip [5]", "value": 100, "unit": "µM"}, {"measurement": "elevations in serum Alanine aminotransferase (ALT)", "setting": "[6]; patients who developed hepatotoxicity", "value": "greater than 3 fold"}, {"measurement": "human patients treated who developed hepatotoxicity", "setting": "[6]", "value": "8-18%"}, {"measurement": "LDH leakage: concentration at which hepatocytes on plates showed an effect", "setting": "Human Liver-on-Chip [7]", "value": 100, "unit": "µM"}, {"measurement": "concentration at which LDH effect was observed (the same as for loss of albumin secretion)", "setting": "Human Liver-on-Chip [7]", "value": "either 3.7 μM or 11.1 μM"}, {"measurement": "IC50", "setting": "[8]", "value": 0.71, "unit": "µM"}, {"measurement": "albumin secretion by DOG hepatocytes", "setting": "DOG Liver-on-Chip [9]; 11.1 μM Bosentan", "value": "relatively constant amounts of albumin"}, {"measurement": "dose response associated with albumin secretion (loss of albumin secretion)", "setting": "DOG Liver-on-Chip [9]; 1.2-100 μM, fluid samples from the upper chamber", "value": "clear dose response"}, {"measurement": "IC50", "setting": "human NTCP (SLC10A1)", "value": 24, "unit": "µM"}, {"measurement": "IC50", "setting": "[10]", "value": 5.4, "unit": "µM"}, {"measurement": "LDH leakage, hepatocytes and LSEC channel of chip", "setting": "RAT Liver-on-Chip; 7 days of treatment", "value": "no toxicity effects"}, {"measurement": "LDH toxicity, rat hepatocytes on conventional plates", "setting": "RAT Liver-on-Chip; plate sandwich culture", "value": "does not show LDH toxicity"}, {"measurement": "hepatocyte degradation, LSEC area or area of hepatocytes alone", "setting": "[11]", "value": "not in either the LSEC area or area of hepatocytes alone"}, {"measurement": "visual observation, co-culture area of hepatocytes with LSEC", "setting": "[11]", "value": "significant hepatocyte degradation"}]}, {"compound": "TGFβ-1: factor used to activate Stellate cells", "values": [{"measurement": "expression of activation marker Alpha-smooth muscle actin (α-SMA)", "setting": "Rat Stellate Cells", "value": "increased (strong) expression"}]}]}
